The text below walks through data of patent US20050187152A1, “Prevention and treatment of hypergastrinemia” (Aphton Corporation, priority 1998, published 2005).

Where no end group is shown, it is not given here.

Data set [1] deals with crypts and tumors of the small and large intestine. Description: Bromodeoxyuridine in situ proliferation index in Min mice. It counts as in vivo, mouse. Conditions: hypergastrinemic mice. As to the method:
One hour prior to termination, mice were injected with DNA analogue bromodeoxyuridine in order to determine the comparative in situ proliferation activity. The samples were formalin fixed, paraffin embedded, sections were cut and stained with an anti-bromodeoxyuridine antibody.
Serum gastrin level was measured by RIA. Prior to end of treatment, proliferative index was determined by the bromodeoxyuridine method. • Group 1.

Data set [2] concerns Min mouse model of familial adenomatous polyposis.
Protocol: Accordingly, the effect of gastrin neutralization on Min mouse survival was determined.
The Min mice used in the study were bred within the Academic Unit of Cancer Studies at Nottingham University (U.K.) on a C57/BL background. […] The Min positive mice were then placed into each arm of the therapy on an ongoing basis.
Gastrin neutralization was achieved by using an immunogen, i.e. the gastrin immunogen preparation, which is composed of the amino terminal domain of gastrin-17 linked, via an amino acid spacer, to diphtheria toxoid which acts as the immunogenic carrier. The antibodies raised by virtue of the design of the immunogen, cross-react with both amidated and glycine-extended gastrin-17, known proliferative forms of gastrin. Min mice were immunized s.c. with the hG17-DT immunogen (100 mg/mouse) at week 4, with subsequent injections at 3 weekly intervals. […] The hG17-DT immunogen was administered to mice at 4 weeks of age to examine its effect on mice with an established tumor burden.
• Group 1. OME 75 mg/kg daily oral treatment • Group 2. OME+GSI 100 mg oral dose/mouse day 0 and every 3 weeks • Group 3. Oral vehicle+control immunogen • Group 4. Oral vehicle−control immunogen
Data set [3] concerns plasma gastrin. Conditions: 400 μmol/kg, 14 mg/kg, 10 weeks; cited from earlier work.
The subject of data set [4] is plasma gastrin. Conditions: cited from earlier work.
Data set [5] has as its system plasma gastrin. The following applies: cited from earlier work. This is another data set of the same source.
Data set [6] has as its target rabbit anti-human G17(1-9):DT (N-terminal) antiserum. As to the kind of experiment: Displacement of radiolabelled G17 from N-terminal specific antiserum. It counts as binding. The following applies: antiserum 100 μg/ml on solid phase, radiolabelled G17 100 pg/ml; FIG. 11. As to the method:
(§1) Antisera were absorbed onto a solid phase at a concentration of 100 μg/ml and displacement was determined in a competitive assay with a fixed concentration of radiolabelled G17 (100 pg/ml) and increasing concentrations of unlabelled ligands (1-25,000 pg/ml).

For data set [7], the target named is rabbit anti-G17 (C-terminal) antiserum. Description: Displacement of radiolabelled G17 from C-terminal specific antiserum. The data set is classed as binding. Conditions: antiserum 100 μg/ml on solid phase, radiolabelled G17 100 pg/ml; FIG. 12. As to the method:
as §1

Data set [8] deals with polypoid carcinomas from the large and small intestine of Min mice. As to the kind of experiment: In vitro proliferation of Min mouse polypoid carcinomas, tetrazolium-based colorimetric assay. It counts as cell-based. As to the method:
Polypoid carcinomas have been established in vitro from the large and small intestine of Min mice. Proliferation was assessed by a tetrazolium-based colorimetric ELISA assay.

Setting [9] is: same dose (400 μmol/kg, 14 mg/kg).
Setting [10] is: patients receiving 40 mg daily for eight years.

Take `COc1ccc2[nH]c([S+]([O-])Cc3ncc(C)c(OC)c3C)nc2c1` (centres unmarked) [omeprazole]: the “proliferating cells, normal colonic mucosa” value in data set [1] (increased from 9.46%, p<0.05 Mann-Whitney) amounted to 20.1%. In addition, the “proliferating cells, colonic neoplasia” value in data set [1] (increased from 22.3%, p<0.01) is 35.0%. In data set [2] (Example 2, OME 75 mg/kg daily oral, control group 16 weeks, p=0.0001 log rank), the 50% survival stood at 8 weeks. In addition, the “effect of omeprazole-induced hypergastrinemia on survival of Min mice” value in data set [2] (high daily doses of omeprazole) is given as “decreases the survival”. Moreover, the median survival in data set [2] (omeprazole-induced hypergastrinemia, reduced from approximately 10 weeks) is roughly 6 weeks. In the data set on plasma gastrin [3], the “ECL density increase at the end of treatment” value is listed as 37%, the “increase in plasma gastrin during treatment” value is reported as “threefold” and the “stomach weight increase at the end of treatment” value is given as 34%. Further, the “increase in gastrin compared to controls” value with plasma gastrin [4] (female rats, long-term (1-year) daily 400 μmol/kg, 14 mg/kg) is 15 fold. In the data set with plasma gastrin [4] (setting [9]), the “ECL cell density increase” value is “about 300%” and the “increase of gastrin levels” value is recorded as 10 fold. In addition, in the data set on plasma gastrin [5] (occasionally, long term treatment, 20-60 mg/day), the “markedly elevated gastrin levels” value is on record as 10 fold. In the data set with plasma gastrin [5] (setting [10]), the “prevalence of micronodular hyperplasia in atrophic gastritis” value is on record as 48%, the “prevalence of micronodular hyperplasia in interstitial gastritis” value was 19.6% and the “prevalence of micronodular hyperplasia in superficial corpus gastritis” value was 3.6%.

As for “G17: gastrin-17, unlabelled ligand in the displacement assay [Peptide G17]”, the “50% inhibitory concentration (IC50), displacement of radiolabelled G17” value in data set [6] was 3.5 ng/mL; in data set [7] it was 0.8 ng/mL.

On to “G34: gastrin-34, unlabelled ligand in the displacement assay (QLGPQGPPHLVADPSKKQGPWLEEEEEAYGWMDF; ends and bridges not checked; UniProt P01350 59-92, looked up) [Peptide G34]”, for which, in data set [7], the “IC25, displacement of radiolabelled G17” value turned out to be 0.5 ng/mL.

For “amidated gastrin: amidated gastrin added to Min mouse tumor cultures (QGPWLEEEEEAYGWMDF-NH2; ends and bridges not checked; UniProt P01350 76-92, looked up)”, in data set [8], the “proliferation of large intestinal tumor in vitro” value is recorded as “not increased” and the “proliferation of small intestinal tumor in vitro” value is reported as “not increased”.
